Test results: US6936585B2, “Corticotropin releasing factor 2 receptor agonists” (priority 2002, dated 2005)
pEC50: −log10 of the molar value. Ends that are not written are not given here. Peptide text beside a SMILES is read from it.

Experiments:
[1] = molecular target: T1, CRF2R (Homo sapiens, UniProt Q13324); test: CRF2R agonist activation (EC50 / Emax), called comparative CRF binding; assay type: cell-based; conditions: for pEC50: read-out: CRF2R EC50; for Emax: read-out: CRF2R Emax
T1 sequence (Q13324 1-411): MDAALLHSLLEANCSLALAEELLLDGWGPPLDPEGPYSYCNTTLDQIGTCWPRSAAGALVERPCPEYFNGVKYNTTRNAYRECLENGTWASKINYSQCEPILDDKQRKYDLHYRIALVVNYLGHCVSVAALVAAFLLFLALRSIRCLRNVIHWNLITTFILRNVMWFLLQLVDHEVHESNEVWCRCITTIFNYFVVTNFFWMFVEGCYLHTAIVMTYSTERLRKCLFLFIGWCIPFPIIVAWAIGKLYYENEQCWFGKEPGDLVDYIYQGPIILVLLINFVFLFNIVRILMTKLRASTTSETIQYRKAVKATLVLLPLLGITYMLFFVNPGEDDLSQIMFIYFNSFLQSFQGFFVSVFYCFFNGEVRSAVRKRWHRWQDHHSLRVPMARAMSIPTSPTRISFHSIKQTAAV
Outline: (§1)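 Peptides are tested on cells bearing CRF1R or CRF2R, full length or as ligand-binding-domain constructs coupled to reporters or G proteins. Activation is scored by cAMP rise, measured in lysates or by CRE-reporter output, against vehicle control.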

[2] = molecular target: T2, CRF1R (Homo sapiens, UniProt P34998); test: CRF1R agonist activation (EC50 / Emax), called comparative CRF binding; assay type: cell-based; conditions: for pEC50: read-out: CRF1R EC50; for Emax: read-out: CRF1R Emax
T2 sequence (P34998 24-415): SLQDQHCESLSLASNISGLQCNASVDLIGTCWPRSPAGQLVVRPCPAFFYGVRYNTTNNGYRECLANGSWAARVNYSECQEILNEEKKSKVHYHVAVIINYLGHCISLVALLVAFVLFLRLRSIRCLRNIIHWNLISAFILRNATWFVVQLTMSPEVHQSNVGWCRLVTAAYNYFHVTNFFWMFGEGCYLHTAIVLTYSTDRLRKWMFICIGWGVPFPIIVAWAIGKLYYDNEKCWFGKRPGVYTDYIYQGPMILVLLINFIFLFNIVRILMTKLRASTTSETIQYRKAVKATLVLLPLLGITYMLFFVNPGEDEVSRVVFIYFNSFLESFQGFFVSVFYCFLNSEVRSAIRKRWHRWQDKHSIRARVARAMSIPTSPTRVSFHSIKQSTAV
Outline: as §1

Molecule | pEC50 [1] | Emax [1] [%] | pEC50 [2] | Emax [2] [%]
CC[C@H](C)[C@H](N)C(=O)N[C@H](C(=O)N[C@@H](CC(C)C)C(=O)N[C@@H](CO)C(=O)N[C@@H](CC(C)C)C(=O)N[C@@H](CC(=O)O)C(=O)N[C@H](C(=O)N[C@@H](CO)C(=O)N[C@H](C(=O)NCC(=O)N[C@@H](CC(C)C)C(=O)N[C@@H](CC(C)C)C(=O)N[C@@H](CCC(N)=O)C(=O)N[C@H](C(=O)N[C@@H](CC(C)C)C(=O)N[C@@H](CC(C)C)C(=O)N[C@@H](CCC(=O)O)C(=O)N[C@@H](CCC(N)=O)C(=O)N[C@@H](C)C(=O)N[C@@H](CCCNC(=N)N)C(=O)N[C@@H](C)C(=O)N[C@@H](CCCNC(=N)N)C(=O)N[C@@H](C)C(=O)N[C@@H](C)C(=O)N[C@@H](CCCNC(=N)N)C(=O)N[C@@H](CCC(=O)O)C(=O)N[C@@H](CCC(N)=O)C(=O)N[C@@H](C)C(=O)N[C@H](C(=O)N[C@H](C(=O)N[C@@H](CC(N)=O)C(=O)N[C@@H](C)C(=O)N[C@@H](CCCNC(=N)N)C(=O)N[C@H](C(=O)N[C@@H](CC(C)C)C(=O)N[C@@H](C)C(=O)N[C@@H](CCCNC(=N)N)C(=O)N[C@H](C(N)=O)C(C)C)[C@@H](C)CC)[C@@H](C)O)[C@@H](C)O)[C@@H](C)CC)[C@@H](C)CC)C(C)C)C(C)C [compound 370] (H-IVLSLDVSIGLLQILLEQARARAAREQATTNARILARV-NH2; N-terminus assumed) | 7.29 | 75 | ≤ 6.00 | 33
SQEPPISLDLPTQLLREVLEMTKADQLAQQAHSNRKLLDIA-NH2 [compound 105] |  | 9.15 |  | 5.2
SQEPPISLDLPLQLLREVLEMTKADQLAQQAHSNRKLLDIA-NH2 [compound 95] |  | 8.25 |  | 5.55
SQEIVLSLDVPIGLLREVLEMTKADQLAQQAHSNRKLLDIA-NH2 [compound 7] | ≤ 7.00 |  | ≤ 7.00 | 
CC[C@H](C)[C@H](N)C(=O)N[C@H](C(=O)N[C@@H](CC(C)C)C(=O)N[C@@H](CO)C(=O)N[C@@H](CC(C)C)C(=O)N[C@@H](CCC(=O)O)C(=O)N[C@H](C(=O)N1CCC[C@H]1C(=O)N[C@H](C(=O)NCC(=O)N[C@@H](CC(C)C)C(=O)N[C@@H](CC(C)C)C(=O)N[C@@H](CCC(N)=O)C(=O)N[C@H](C(=O)N[C@@H](CC(C)C)C(=O)N[C@@H](CC(C)C)C(=O)N[C@@H](CCC(=O)O)C(=O)N[C@@H](CCC(N)=O)C(=O)N[C@@H](C)C(=O)N[C@@H](CCCNC(=N)N)C(=O)N[C@@H](C)C(=O)N[C@@H](CCCNC(=N)N)C(=O)N[C@@H](C)C(=O)N[C@@H](C)C(=O)N[C@@H](CCCNC(=N)N)C(=O)N[C@@H](CCC(=O)O)C(=O)N[C@@H](CCC(N)=O)C(=O)N[C@@H](C)C(=O)N[C@H](C(=O)N[C@H](C(=O)N[C@@H](CC(N)=O)C(=O)N[C@@H](C)C(=O)N[C@@H](CCCNC(=N)N)C(=O)N[C@H](C(=O)N[C@@H](CC(C)C)C(=O)N[C@@H](C)C(=O)N[C@@H](CCCNC(=N)N)C(=O)N[C@H](C(N)=O)C(C)C)[C@@H](C)CC)[C@@H](C)O)[C@@H](C)O)[C@@H](C)CC)[C@@H](C)CC)C(C)C)C(C)C [compound 120] (H-IVLSLEVPIGLLQILLEQARARAAREQATTNARILARV-NH2; N-terminus assumed) | 7.16 | 100 | ≤ 7.00 | 7
CC[C@H](C)[C@H](NC(=O)[C@H](C)NC(=O)[C@H](CC(N)=O)NC(=O)[C@H](CCC(N)=O)NC(=O)[C@H](CCC(=O)O)NC(=O)[C@H](C)NC(=O)[C@H](CCCNC(=N)N)NC(=O)[C@H](CCC(=O)O)NC(=O)[C@H](CCCNC(=N)N)NC(=O)[C@H](CCC(N)=O)NC(=O)[C@H](CO)NC(=O)[C@H](CCC(N)=O)NC(=O)[C@@H](NC(=O)[C@H](CCCNC(=N)N)NC(=O)[C@H](C)NC(=O)[C@H](CC(C)C)NC(=O)[C@H](CCC(=O)O)NC(=O)[C@H](CC(C)C)NC(=O)[C@H](CC(C)C)NC(=O)[C@@H](NC(=O)[C@H](CCCNC(=N)N)NC(=O)[C@H](CC(C)C)NC(=O)[C@H](CC(C)C)NC(=O)[C@H](CCC(N)=O)NC(=O)[C@H](Cc1ccccc1)NC(=O)[C@@H]1CCCN1C(=O)[C@H](CC(C)C)NC(=O)[C@H](CC(=O)O)NC(=O)[C@@H](NC(=O)[C@H](CO)NC(=O)[C@H](CC(C)C)NC(=O)[C@H](CO)NC(=O)[C@@H]1CCCN1C(=O)[C@H](CC(N)=O)NC(=O)[C@@H](N)CC(=O)O)[C@@H](C)CC)[C@@H](C)O)[C@@H](C)O)C(=O)N[C@H](C(=O)N[C@@H](Cc1ccccc1)C(=O)N[C@@H](C)C(=O)N[C@@H](CO)C(=O)N[C@H](C(N)=O)C(C)C)[C@@H](C)CC [compound 182] (H-DNPSLSIDLPFQLLRTLLELARTQSQRERAEQNAIIFASV-NH2; N-terminus assumed) | 8.14 | 91.4 | 6.39 | 89.7
CC[C@H](C)[C@H](N)C(=O)N[C@H](C(=O)N[C@@H](CC(C)C)C(=O)N[C@@H](CO)C(=O)N[C@@H](CC(C)C)C(=O)N[C@@H](CC(=O)O)C(=O)N[C@H](C(=O)N1CCC[C@H]1C(=O)N[C@H](C(=O)NCC(=O)N[C@@H](CC(C)C)C(=O)N[C@@H](CC(C)C)C(=O)N[C@@H](CCC(N)=O)C(=O)N[C@H](C(=O)N[C@@H](CC(C)C)C(=O)N[C@@H](CC(C)C)C(=O)N[C@@H](CCC(=O)O)C(=O)N[C@@H](CCC(N)=O)C(=O)N[C@@H](C)C(=O)N[C@@H](C)C(=O)N[C@@H](CCCNC(=N)N)C(=O)N[C@@H](CCC(=O)O)C(=O)N[C@@H](CCC(N)=O)C(=O)N[C@@H](C)C(=O)N[C@H](C(=O)N[C@H](C(=O)N[C@@H](CC(N)=O)C(=O)N[C@@H](C)C(=O)N[C@@H](CCCNC(=N)N)C(=O)N[C@H](C(=O)N[C@@H](CC(C)C)C(=O)N[C@@H](C)C(=O)N[C@@H](CCCNC(=N)N)C(=O)N[C@H](C(N)=O)C(C)C)[C@@H](C)CC)[C@@H](C)O)[C@@H](C)O)[C@@H](C)CC)[C@@H](C)CC)C(C)C)C(C)C [compound 138] (H-IVLSLDVPIGLLQILLEQAAREQATTNARILARV-NH2; N-terminus assumed) | 7.23 | 46 | < 7.00 | 5
NDDPPISIDLPFFLLRNMIEMARIENEREQAGLNAKYLAEV-NH2 [compound 264] |  | 66.3 |  | 100
CC[C@H](C)[C@H](N)C(=O)N[C@H](C(=O)N[C@@H](CC(C)C)C(=O)N[C@@H](CO)C(=O)N[C@@H](CC(C)C)C(=O)N[C@@H](CC(=O)O)C(=O)N[C@H](C(=O)N[C@H](C(=O)N[C@H](C(=O)NCC(=O)N[C@@H](CC(C)C)C(=O)N[C@@H](CC(C)C)C(=O)N[C@@H](CCC(N)=O)C(=O)N[C@H](C(=O)N[C@@H](CC(C)C)C(=O)N[C@@H](CC(C)C)C(=O)N[C@@H](CCC(=O)O)C(=O)N[C@@H](CCC(N)=O)C(=O)N[C@@H](C)C(=O)N[C@@H](CCCNC(=N)N)C(=O)N[C@@H](C)C(=O)N[C@@H](CCCNC(=N)N)C(=O)N[C@@H](C)C(=O)N[C@@H](C)C(=O)N[C@@H](CCCNC(=N)N)C(=O)N[C@@H](CCC(=O)O)C(=O)N[C@@H](CCC(N)=O)C(=O)N[C@@H](C)C(=O)N[C@H](C(=O)N[C@H](C(=O)N[C@@H](CC(N)=O)C(=O)N[C@@H](C)C(=O)N[C@@H](CCCNC(=N)N)C(=O)N[C@H](C(=O)N[C@@H](CC(C)C)C(=O)N[C@@H](C)C(=O)N[C@@H](CCCNC(=N)N)C(=O)N[C@H](C(N)=O)C(C)C)[C@@H](C)CC)[C@@H](C)O)[C@@H](C)O)[C@@H](C)CC)[C@@H](C)CC)C(C)C)C(C)C)C(C)C [compound 214] (H-IVLSLDVVIGLLQILLEQARARAAREQATTNARILARV-NH2; N-terminus assumed) |  | 60 |  | 4
SQEPPISLDLPTGLLREVLEMTKADQLAQQAHSNRKLLDIA-NH2 [compound 98] |  | 5.5 |  | 4
CC[C@H](C)[C@H](NC(=O)[C@H](CCCNC(=N)N)NC(=O)[C@H](C)NC(=O)[C@H](CC(N)=O)NC(=O)[C@H](CCC(N)=O)NC(=O)[C@H](CCC(=O)O)NC(=O)[C@H](C)NC(=O)[C@H](CCCNC(=N)N)NC(=O)[C@H](CCC(=O)O)NC(=O)[C@H](CCCNC(=N)N)NC(=O)[C@H](CCC(N)=O)NC(=O)[C@H](CO)NC(=O)[C@H](CCC(N)=O)NC(=O)[C@@H](NC(=O)[C@H](CCCNC(=N)N)NC(=O)[C@H](C)NC(=O)[C@H](CC(C)C)NC(=O)[C@H](CCC(=O)O)NC(=O)[C@H](CC(C)C)NC(=O)[C@H](CC(C)C)NC(=O)[C@@H](NC(=O)[C@H](CCCNC(=N)N)NC(=O)[C@H](CC(C)C)NC(=O)[C@H](CC(C)C)NC(=O)[C@H](Cc1ccccc1)NC(=O)[C@H](CC(C)C)NC(=O)[C@@H]1CCCN1C(=O)[C@H](CC(C)C)NC(=O)[C@H](CC(=O)O)NC(=O)[C@@H](NC(=O)[C@H](CO)NC(=O)[C@H](CC(C)C)NC(=O)[C@H](CO)NC(=O)[C@@H]1CCCN1C(=O)[C@H](CC(N)=O)NC(=O)[C@@H](N)CC(=O)O)[C@@H](C)CC)[C@@H](C)O)[C@@H](C)O)C(=O)N[C@@H](Cc1ccccc1)C(=O)N[C@@H](C)C(=O)N[C@@H](CCCNC(=N)N)C(=O)N[C@H](C(N)=O)C(C)C [compound 329] (H-DNPSLSIDLPLFLLRTLLELARTQSQRERAEQNARIFARV-NH2; N-terminus assumed) |  | 98.3 |  | 98.4
